The text below walks through data of patent publication US12297176B2, “Compounds and methods for inhibiting EMT pathways to treat cancer, organ fibrosis and metabolic disorders” (University of Pittsburgh—Of the Commonwealth System of …, priority 2017, dated 2025).

The subject of one series is Hippo pathway. Kind of series: Hippo pathway luciferase reporter in 293 cells. The class given is cell-based. As to conditions: 24 hours. How it is done: (§1) FIGS. 1A-1C. CPADAML16 is a common inhibitor of Wnt (FIG. 1C), TGF beta (FIG. 1B), and Hippo (FIG. 1A). 293 cells were transfected with luciferase reporters corresponding to each pathway and then exposed to CPADAML16, the Wnt inhibitor Pyrvinium (PYR) or the TGF beta inhibitor SB-431 at the indicated concentrations. After 24 hours, the cells were lysed and luciferase activity measured. Data represents average of three replicates ±SE.
The present disclosure concerns the discovery of small molecules inhibitors of major EMT pathways particularly those mediated by TGF beta, Wnt and Hippo. These pathways are known to play key roles in the induction of epithelial-mesenchymal transition (EMT) a cellular process responsible for cancer metastasis, resistance to therapy and organ fibrosis. […] In a search for putative inhibitors of the Hippo pathway, a luciferase reporter system was used to screen a series of chemical compounds. […] CPADAML16 suppressed cancer cell ability to undergo EMT, to proliferate and to become drug resistant. Investigation of the underlying mechanism led to the finding that CPADAML16 induces degradation of the Hippo transducer TAZ mainly by activating AMPK upstream of the GSK3 beta associated degradation complex. CPADAML16 exerted a strong anti-tumor activity in a xenograft mice model with no noticeable toxicity. […]
On the technique in general: In a reporter assay the amount or activity of a reporter protein is the signal.

A short description of series [1]: Body weight and signs of toxicity in xenograft mice. The class given is in vivo, nude mice (strain CD1). As to conditions: WM266 xenograft mice. The protocol: (§2) FIGS. 5A-5B. Effect of CPADAML16 (20 mg/kg) on tumor growth (FIG. 5A) and body weight (FIG. 5B). Data represents 7 replicates ±SE.
(§3) Experiments were carried out to analyse the anti-tumor activity and safety of CPADAML16 in mice bearing xenograft tumors. For this, nude mice (strain CD1) were sub-cutaneously inoculated with melanoma cells WM266 and after tumors became palpable, they were randomized into control and treatment groups and received 3 injections (starting on day 15 and separated by three days) of vehicle (control group) or CPADAML16 dissolved in the vehicle solution (treatment groups). Tumor volumes and body weight were measured and mice evaluated for signs of toxicity on a daily basis. At the end of experiments, the animals were sacrificed and tumors harvested to determine if molecular targets of CPADAML16 were altered.

A further series relates to TAZ. Kind of series: Western blot of Hippo pathway transducers: TAZ. The class given is cell-based. The source says: (§4) FIGS. 2A-2D. Putative mechanism. FIG. 2A. Effect of CPADAML16 on Hippo pathway transduces YAP, TAZ and TEAD measured by Western blot. FIG. 2B. Possible signaling pathways leading to degradation of TAZ. The effects of CPADAML16 on the Mst/Lats kinases and the Akt/GSK3 beta axis are shown in FIGS. 2C and 2D, respectively.
(§5) There are three possibilities by which this might occur (FIG. 2B): 1) through activation Mst/Lats, 2) inhibition of Akt or 3) activation of AMPK. […] In light of recent findings that TAZ is also target of the GSK3 beta associated destruction complex, we reasoned that CPADAML16 may act directly or indirectly to activate this complex. […] These effects were concentration and time dependent and valid in various cell lines […]. […] Together these findings identified AMPK as a novel target of CPADAML16, shedding light on a new mechanism by which this compound could signal for TAZ degradation and inhibition of Hippo signaling.
Background: In western blotting, separated proteins are transferred to a membrane and probed.

The next series concerns MST1. Kind of series: Activation (phosphorylation) of Hippo core kinase MST1. The class given is cell-based.
Description: as §4, §5

Another series has as its system YAP. Kind of series: Western blot of Hippo pathway transducers: YAP. The class given is cell-based.
Description: as §4, §5

Another series concerns AMPK. Kind of series: Phosphorylation of AMPK at threonine 172. The class given is cell-based.
Description: FIGS. 3A-3G. Effect of CPADAML16 on […]. FIGS. 3A and 3B. Dose and time dependent effects of CPADAML16 on phosphorylation of AMPK. FIG. 3C. Effect of AICAR on phosphorylation of AMPK. FIG. 3D. Effect of CPADAML16 on phosphorylation of AMPK downstream target ACC. FIGS. 3E-3G. Confirmation CPADAML16-induced AMPK phosphorylation in different cell lines.
as §5

For the next series, the system named is GSK3 beta. The series is described as follows: Phosphorylation of GSK3. The class given is cell-based. Particulars: inhibited phosphorylation = induced activation.
Description: as §4, §5

In the next series the test system is Wnt signaling. Kind of series: Wnt pathway luciferase reporter in 293 cells. The class given is cell-based. Particulars: 24 hours. How it is done: as §1
(§6) By comparison, none of Wnt or TGF beta inhibitors had affected the Hippo pathway reporter. Based on this, CPADAML16 may represent a unique candidate molecule to target simultaneously the Hippo, Wnt and TGF beta pathways.

The next series deals with TEAD. Kind of series: Western blot of Hippo pathway transducers: TEAD. The class given is cell-based.
Description: as §4, §5

In a further series the test system is melanoma cell. The series is described as follows: Cell response to doxorubicin with and without compound. The class given is cell-based. The protocol: (§7) FIGS. 4A-4C. Inhibition of cell migration, proliferation and resistance to therapy by CPADAML16. FIG. 4A. Cell monolayer scratch depicting inhibition of cell migration by CPADAML16. FIG. 4B. Effect on cell proliferation measured after 5 days of incubation. FIG. 4C. Cell response to doxorubicin was measured in the presence and absence of CPADAML16. Data in FIG. 4C represent average of three determinations ±SE.

In another series the test system is cell migration. Kind of series: Cell monolayer scratch, cell migration. The class given is cell-based. The protocol: as §7
Another series deals with Lats1. Kind of series: Activation (phosphorylation) of Hippo core kinase Lats1. The class given is cell-based.
Description: as §4, §5

For another series, the system named is melanoma cells WM266. The series is described as follows: Anti-tumor activity in mice bearing xenograft tumors. Particulars: 20 mg/Kg, 3 injections, end of experiment. The class given is in vivo, nude mice (strain CD1). The protocol:
as §2, §3

A further series has as its system TGF beta signaling. The series is described as follows: TGF beta pathway luciferase reporter in 293 cells. The class given is cell-based. As to conditions: 24 hours. The protocol:
as §1, §6

In series [2] the test system is three melanoma and one breast cancer cell lines. The series is described as follows: Cell proliferation after 5 days of incubation. The class given is cell-based. How it is done:
as §7

The next series deals with Akt. The series is described as follows: Phosphorylation of Akt. The class given is cell-based.
Description: as §4, §5

For `CCCCCOc1ccccc1C(=O)c1cc(C(=O)OCC)c(=O)n(Cc2ccccc2)c1` [CPADAML16, 3-Ethoxycarbonyl-5-(o-pentyloxybenzoyl)-1-(benzyl)pyridin-2-one], in the series with Hippo pathway, the “Hippo pathway reporter luciferase activity” value is “remarkable inhibitory activity”. In addition, the body weight entry in series [1] (20 mg/kg) was “did not change significantly”. Besides, the “health / signs of toxicity” value in [1] (evaluated daily) is “in good health throughout the experiment”. Also, the Taz levels result with TAZ was “reduced in a concentration dependent manner”. In addition, the “phosphorylation of MST1” value with MST1 was “did not affected phosphorylation”. Besides, the YAP levels result in the series with YAP is “largely unaltered”. In addition, in the series on AMPK, the “potency of AMPK activation compared with AICAR” value is on record as “more potent than AICAR”. In addition, the “phosphorylation of AMPK at threonine 172” value in the series on AMPK (concentration and time dependent, various cell lines) was “strongly induced phosphorylation”. Besides, the “phosphorylation of GSK3” value in the series with GSK3 beta is listed as “inhibited phosphorylation”. Also, in the series with Wnt signaling, the “Wnt signaling reporter luciferase activity” value is listed as “remarkably inhibited”. In the series on TEAD, the TEAD levels result is reported as “largely unaltered”. The “melanoma cell response to doxorubicin in the presence of the compound” value in the series on melanoma cell is recorded as “significantly enhanced”. Also, in the series with cell migration, the cell migration entry was “strongly inhibits”. Also, the “phosphorylation of Lats1” value with Lats1 is “did not affected phosphorylation”. For the same molecule, the tumor growth inhibition result in the series on melanoma cells WM266 is recorded as “about 90%”. Moreover, the “TGF beta signaling reporter luciferase activity” value in the series with TGF beta signaling is “remarkably inhibited”. The proliferation entry in series [2] was “strongly inhibits”. Also, the “phosphorylation of Akt” value with Akt is given as “not due to reduced phosphorylation of Akt”.
